The conditions of the data set: 101.33 kPa, Liquid; for viscosity: Falling or rolling sphere viscometry; for mass density: Vibrating tube method.

Three compounds from the NIST ThermoML archive (doi:10.1016/j.fluid.2013.12.020) can be followed below.

Numbers after ± are expanded uncertainties.

In the case of `NCCO` [2-aminoethan-1-ol], the viscosity (commonly the resistance of a fluid to flow) was 23.76 ± 0.98 mPa·s (293.15 K); 14.85 ± 0.61 mPa·s (303.15 K); 9.943 ± 0.41 mPa·s (313.15 K); 6.984 ± 0.29 mPa·s (323.15 K); 5.108 ± 0.21 mPa·s (333.15 K). Also, the mass density – broadly, mass per unit of volume – by setting is: (293.15 K) 1015.96 ± 0.3 kg/m3; (303.15 K) 1008.05 ± 0.29 kg/m3; (313.15 K) 1000.09 ± 0.29 kg/m3; (323.15 K) 992.07 ± 0.29 kg/m3; (333.15 K) 983.98 ± 0.29 kg/m3.

Take `CCCCn1cc[n+](C)c1.N#CN=C=[N-]` [1-butyl-3-methylimidazolium dicyanamide]: the viscosity is, setting by setting: (293.15 K) 48.53 ± 2.1 mPa·s; (303.15 K) 31.73 ± 1.4 mPa·s; (313.15 K) 22.09 ± 0.96 mPa·s; (323.15 K) 16.17 ± 0.7 mPa·s; (333.15 K) 12.35 ± 0.54 mPa·s. Besides, the mass density (293.15 K) was found to be 1065.4 ± 2.2 kg/m3; the mass density (303.15 K) is given as 1059.09 ± 2.1 kg/m3; the mass density (313.15 K) was 1052.83 ± 2.1 kg/m3; the mass density (323.15 K) was 1046.62 ± 2.1 kg/m3; the mass density (333.15 K) is listed as 1040.48 ± 2 kg/m3.

Take `Cn1cc[n+](CCO)c1.N#C[N-]C#N` [3-(2-hydroxyethyl)-1-methyl-1H-imidazol-3-ium dicyanoazanide]: the viscosity turned out to be 121.5 ± 6.2 mPa·s (293.15 K); 68.67 ± 3 mPa·s (303.15 K); 42.93 ± 1.9 mPa·s (313.15 K); 28.96 ± 1.3 mPa·s (323.15 K); 20.67 ± 0.9 mPa·s (333.15 K). The mass density (293.15 K) came to 1192.85 ± 2.7 kg/m3; the mass density (303.15 K) was found to be 1186.37 ± 2.7 kg/m3; the mass density (313.15 K) stood at 1179.92 ± 2.7 kg/m3; the mass density (323.15 K) is reported as 1173.52 ± 2.6 kg/m3; the mass density (333.15 K) is given as 1167.18 ± 2.6 kg/m3.
